Laboratory results published in patent US10800792B2, “Inhibitors of Bruton's tyrosine kinase and method of their use” (JANSSEN PHARMACEUTICA NV, priority 2015, dated 2020).

target: unphosphorylated-BTK kinase domain (UP-BTK), GST-tagged human BTK (389-659aa) (Homo sapiens (Human), UniProt Q06187); assay: BTK kinase Lanthascreen binding assay; details: Lanthascreen tracer competition, 60 minutes incubation; pIC50 = negative log of the IC50 in molar
Outline: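 Compound binding to the unphosphorylated kinase domain was monitored by displacement of a fluorescently labelled tracer in a Lanthascreen format. Potency is given as pIC50, the negative log of the molar IC50.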

Sequence of unphosphorylated-BTK kinase domain (UP-BTK), GST-tagged human BTK (389-659aa) (Q06187 389-659): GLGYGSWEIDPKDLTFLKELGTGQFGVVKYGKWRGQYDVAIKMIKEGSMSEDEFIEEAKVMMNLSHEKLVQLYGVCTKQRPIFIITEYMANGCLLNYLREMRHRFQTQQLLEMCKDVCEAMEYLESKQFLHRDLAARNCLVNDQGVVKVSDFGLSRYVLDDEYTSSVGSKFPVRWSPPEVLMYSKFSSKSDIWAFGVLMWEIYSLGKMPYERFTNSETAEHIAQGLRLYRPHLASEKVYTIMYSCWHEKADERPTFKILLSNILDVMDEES

BTK_I_binding pIC50	SMILES
<6	O=C(N[C@@H]1CCCNC1)c1sc2nccc3c2c1NC(=O)N3c1cccc(C2CCOCC2)c1 [Example 738, (R)-4-Oxo-N-(piperidin-3-yl)-5-(3-(tetrahydro-2H-pyran-4-yl)phenyl)-4,5-dihydro-3H-1-thia-3,5,8-triazaacenaphthylene-2-carboxamide]
5.9	C=CC(=O)N1CCC[C@@H](NC(=O)c2sc3nccc4c3c2NC(=O)N4c2cccc(-c3ccncc3)c2)C1 [Example 631, (R)—N-(1-Acryloylpiperidin-3-yl)-4-oxo-5-(3-(pyridin-4-yl)phenyl)-4,5-dihydro-3H-1-thia-3,58-triazaacenaphthylene-2-carboxamide]
6.6	C=CC(=O)N1CCC[C@@H](NC(=O)c2sc3nccc4c3c2NC(=O)N4c2ccc(O[C@@H]3CCOC3)cc2C)C1 [Example 787, N—((R)-1-Acryloylpiperidin-3-yl)-5-(2-methyl-4-(((R)-tetrahydrofuran-3-yl)oxy)phenyl)-4-oxo-4,5-dihydro-3H-1-thia-3,5,8-triazaacenaphthylene-2-carboxamide]
6.7	C=CC(=O)N1CC[C@@H](NC(=O)c2sc3nccc4c3c2NC(=O)N4c2cccc(C(C)C)c2)C1 [Example 705, (R)—N-(1-Acryloylpyrrolidin-3-yl)-5-(3-isopropylphenyl)-4-oxo-4,5-dihydro-3H-1-thia-3,5,8-triazaacenaphthylene-2-carboxamide]
6.1	C=CC(=O)N1CCC[C@@H](NC(=O)c2sc3nccc4c3c2NC(=O)N4c2ccc(OC3COC3)cc2)C1 [Example 612, (R)—N-(1-Acryloylpiperidin-3-yl)-5-(4-(oxetan-3-yloxy)phenyl)-4-oxo-4,5-dihydro-3H-1-thia-3,5,8-triazaacenaphthylene-2-carboxamide]
6.5	CNCC(=O)N1CCC[C@@H](NC(=O)c2sc3nccc4c3c2NC(=O)N4c2ccnc(-c3ccccc3)c2)C1 [Example 714, (R)—N-(1-(Methylglycyl)piperidin-3-yl)-4-oxo-5-(2-phenylpyridin-4-yl)-4,5-dihydro-3H-1-thia-3,5,8-triazaacenaphthylene-2-carboxamide]
<5	CC(C)(C)c1cccc(N2C(=O)Nc3c(C(=O)N[C@@H]4CCCNC4)sc4nccc2c34)c1 [Example 646, (R)-5-(3-(tert-Butyl)phenyl)-4-oxo-N-(piperidin-3-yl)-4,5-dihydro-3H-1-thia-3,5,8-triazaacenaphthylene-2-carboxamide]
7.5	N#C/C(=C\C1CC1)C(=O)N1CCCC(NC(=O)c2sc3nccc4c3c2NC(=O)N4c2cccc(Oc3ccccc3)c2)C1 (centres unmarked) [Example 851, (E)-N-(1-(2-Cyano-3-cyclopropylacryloyl)piperidin-3-yl)-4-oxo-5-(3-phenoxyphenyl)-4,5-dihydro-3H-1-thia-3,5,8-triazaacenaphthylene-2-carboxamide]
7.9	C=CC(=O)N1CCC[C@@H](NC(=O)c2sc3nccc4c3c2NC(=O)N4c2ccc(Oc3cccnc3)cc2)C1 [Example 774, (R)—N-(1-Acryloylpiperidin-3-yl)-4-oxo-5-(4-(pyridin-3-yloxy)phenyl)-4,5-dihydro-3H-1-thia-3,5,8-triazaacenaphthylene-2-carboxamide]
5.9	O=C(N[C@@H]1CCNC1)c1sc2nccc3c2c1NC(=O)N3c1ccc(Oc2ccccc2)nc1 [Example 741, (R)-4-Oxo-5-(6-phenoxypyridin-3-yl)-N-(pyrrolidin-3-yl)-4,5-dihydro-3H-1-thia-3,5,8-triazaacenaphthylene-2-carboxamide]

Further lines, the compound ahead of its results:

SMILES	BTK_I_binding pIC50
N#C/C(=C\C1CC1)C(=O)N1CCC[C@@H](NC(=O)c2sc3nccc4c3c2NC(=O)N4c2ccc(C(=O)Nc3cc(C(F)(F)F)ccn3)cc2F)C1 [Example 836, (R,E)-N-(1-(2-Cyano-3-cyclopropylacryloyl)piperidin-3-yl)-5-(2-fluoro-4-((4-(trifluoromethyl)pyridin-2-yl)carbamoyl)phenyl)-4-oxo-4,5-dihydro-3H-1-thia-3,5,8-triazaacenaphthylene-2-carboxamide]	7.9
C=CC(=O)N1CCC[C@@H](NC(=O)c2sc3nccc4c3c2NC(=O)N4c2ccc(Oc3cccnn3)cc2C)C1 [Example 784, (R)—N-(1-Acryloylpiperidin-3-yl)-5-(2-methyl-4-(pyridazin-3-yloxy)phenyl)-4-oxo-4,5-dihydro-3H-1-thia-3,5,8-triazaacenaphthylene-2-carboxamide]	7.4

same assay, conditions: pIC50 = negative log of the IC50 in molar; 60 minutes incubation, 50 nM Tracer 236

SMILES	BTK_I_binding pIC50
Cc1cc(Oc2ccccc2)ccc1N1C(=O)Nc2c(C(=O)N[C@@H]3C[C@H](O)CN(C)C3)sc3nccc1c23 [Example 266, N-((3R,5S)-5-Hydroxy-1-methylpiperidin-3-yl)-5-(2-methyl-4-phenoxyphenyl)-4-oxo-4,5-dihydro-3H-1-thia-3,5,8-triazaacenaphthylene-2-carboxamide]	6.3
C=CC(=O)N1CC[C@@H](NC(=O)c2sc3nccc4c3c2NC(=O)N4c2c(C)cc(Oc3ccccc3)cc2C)C1 [Example 81, (R)—N-(1-Acryloylpyrrolidin-3-yl)-5-(2,6-dimethyl-4-phenoxyphenyl)-4-oxo-4,5-dihydro-3H-1-thia-3,5,8-triazaacenaphthylene-2-carboxamide]	6.6
Cc1cc(Oc2ccccc2)ccc1N1C(=O)Nc2c(C(=O)N[C@H]3CNC[C@H]3F)sc3nccc1c23 [Example 154, N-((3S,4R)-4-Fluoropyrrolidin-3-yl)-5-(2-methyl-4-phenoxyphenyl)-4-oxo-4,5-dihydro-3H-1-thia-3,5,8-triazaacenaphthylene-2-carboxamide]	7.2
Cc1cc(Oc2ccccc2)ccc1N1C(=O)Nc2c(C(=O)NC3CCCN(C(=O)/C=C/CO)C3)sc3nccc1c23 (stereo in doubt) [Example 25, (S,E)-N-(1-(4-Hydroxybut-2-enoyl)piperidin-3-yl)-5-(2-methyl-4-phenoxyphenyl)-4-oxo-4,5-dihydro-3H-1-thia-3,5,8-triazaacenaphthylene-2-carboxamide]	7.5
Cc1cc(Oc2ccccc2)ccc1N1C(=O)Nc2c(C(=O)N[C@H]3CNC[C@@H](O)C3)sc3nccc1c23 [Example 197, N-((3R,5S)-5-Hydroxypiperidin-3-yl)-5-(2-methyl-4-phenoxyphenyl)-4-oxo-4,5-dihydro-3H-1-thia-3,5,8-triazaacenaphthylene-2-carboxamide]	6.8
Cc1cc(Oc2ccccc2)ccc1N1C(=O)Nc2c(C(=O)NC3CN(C(=O)/C(C#N)=C/C4CC4)C3)sc3nccc1c23 [Example 229, (E)-N-(1-(2-Cyano-3-cyclopropylacryloyl)azetidin-3-yl)-5-(2-methyl-4-phenoxyphenyl)-4-oxo-4,5-dihydro-3H-1-thia-3,5,8-triazaacenaphthylene-2-carboxamide]	6.7
Cc1cc(Oc2ccccc2)ccc1N1C(=O)Nc2c(C(=O)NC3CC4CCN3CC4)sc3nccc1c23 (centres unmarked) [Example 171, 5-(2-Methyl-4-phenoxyphenyl)-4-oxo-N-(quinuclidin-2-yl)-4,5-dihydro-3H-1-thia-3,5,8-triazaacenaphthylene-2-carboxamide]	7.0

same assay, conditions: unphosphorylated-BTK kinase domain, 50 nM Tracer 236, 60 minutes; pIC50 = negative log of the IC50 in molar

BTK_I_binding pIC50	SMILES
6.4	C=CC(=O)N1CCC[C@@H](NC(=O)c2sc3nccc4c3c2NC(=O)N4c2ccc(-c3cccs3)cc2)C1 [Example 397, (R)—N-(1-Acryloylpiperidin-3-yl)-4-oxo-5-(4-(thiophen-2-yl)phenyl)-4,5-dihydro-3H-1-thia-3,5,8-triazaacenaphthylene-2-carboxamide]
6.7	C=CC(=O)N1CCC[C@@H](NC(=O)c2sc3nccc4c3c2NC(=O)N4c2ccc(Cl)c(Cl)c2)C1 [Example 360, (R)—N-(1-Acryloylpiperidin-3-yl)-5-(3,4-dichlorophenyl)-4-oxo-4,5-dihydro-3H-1-thia-3,5,8-triazaacenaphthylene-2-carboxamide]

Second part, the compound before the results:

SMILES	BTK_I_binding pIC50
C=CC(=O)N1CC[C@@H](N(C)C(=O)c2sc3nccc4c3c2NC(=O)N4c2ccc(Oc3ccccc3)cc2C)C1 (single isomer, unassigned) [Example 442, (R)—N-(1-Acryloylpyrrolidin-3-yl)-N-methyl-5-(*R)-(2-methyl-4-phenoxyphenyl)-4-oxo-4,5-dihydro-3H-1-thia-3,5,8-triazaacenaphthylene-2-carboxamide]	6.9
C/C=C/C(=O)N1CCC[C@@H](NC(=O)c2sc3nccc4c3c2NC(=O)N4c2ccc(Oc3ccccc3)cc2C)C1 (single isomer, unassigned) [Example 473, (R,*E)-N-(1-(But-2-enoyl)piperidin-3-yl)-5-(*S)-(2-methyl-4-phenoxyphenyl)-4-oxo-4,5-dihydro-3H-1-thia-3,5,8-triazaacenaphthylene-2-carboxamide]	5.9
C=CC(=O)N1CCC[C@@H](NC(=O)c2sc3nccc4c3c2NC(=O)N4c2ccc(OC3CCC3)cc2)C1 [Example 457, (R)—N-(1-Acryloylpiperidin-3-yl)-5-(4-cyclobutoxyphenyl)-4-oxo-4,5-dihydro-3H-1-thia-3,5,8-triazaacenaphthylene-2-carboxamide]	7.6

same assay, conditions: unphosphorylated-BTK kinase domain, 60 minutes incubation, 50 nM Tracer 236; pIC50 = negative log of the IC50 in molar

SMILES	BTK_I_binding pIC50
COc1ccccc1Oc1ccc(N2C(=O)Nc3c(C(=O)NC4CCN(C)CC4)sc4nccc2c34)c(C)c1 [Example 918, 5-(4-(2-Methoxyphenoxy)-2-methylphenyl)-N-(1-methylpiperidin-4-yl)-4-oxo-4,5-dihydro-3H-1-thia-3,5,8-triazaacenaphthylene-2-carboxamide]	6.4
C=CC(=O)N1CC[C@@H](NC(=O)c2sc3nccc4c3c2NC(=O)N4c2cnc(OC(C)C)cc2C)C1 (single isomer, unassigned) [Example 959, (R)—N-(1-Acryloylpyrrolidin-3-yl)-5-(*S)-(6-isopropoxy-4-methylpyridin-3-yl)-4-oxo-4,5-dihydro-3H-1-thia-3,5,8-triazaacenaphthylene-2-carboxamide]	7.5
